Measurements taken from US20030149235A1, “Targeting peptides” (priority 2000, published 2003).
“Also recorded” adds a separate entry of the source. Non-standard residues stand in square brackets, D forms with d. Residues, ends and D or L forms follow the SMILES beside them. *: point of attachment. Nle = CCCC[C@H](N)C(=O)O; Cbz = O=C(OCc1ccccc1)*

What was measured:
HUVEC = assay: wtAAVegfp transduction, eGFP fluorimetry; format: cell-based, human; conditions: 250 transduction units/cell, 40 μM LLnL, 4 μM mg132, 5 μg/ml aphidicolin, 10 μM etoposide
Source text: FIG. 6 illustrates the efficiency of AAV-mediated gene transfer to ECs. (A) HUVEC and HeLa cells were mock infected (open bars) or infected with 1000 transduction units/cell of wtAAVegfp (filled bars) and analyzed for eGFP expression by fluorimetry and fluorescence microscopy. (B) ECs were infected with 250 transduction units/cell wtMVegfp in the presence or absence of mg132, LLnL, genistein, hydroxyurea, aphidicolin, etoposide, or camptothecin and harvested for quantification of eGFP by fluorimetry at either 24 h or 96 h postinfection. RFU, relative fluorescent units. *Indicates statistical significance from wtMVegfp alone at the same time point. Representative of three independent experiments;
Cells were plated to reach 80% confluence 24 h later. In each case an accurate cell count was performed immediately before infection. Cells were infected with increasing doses of AAV vectors in the presence or absence of helper adenovirus (Ad) as indicated. For each cell type, Ad co-infection was performed at a dose that mediated 70% transduction, based on prior infection efficiency experiments performed on each cell type using a LacZ-expressing Ad, RAd35. At the required time point, cells were washed and lysed in 0.2% Triton X-100 in PBS and stored at −20° C. For dissection of AAV transduction of EC, cells were incubated with AAV in the absence or presence of 40 μM LLnL, 4 μM mg132, 50 μM genistein, 40 mM hydroxyurea, 5 μg/ml aphidicolin, 10 μM etoposide, 0.1 μM camptothecin or 150 nM bafilomycin A2.
Cells were infected as indicated above in the absence or presence of 1 IU heparin/[…] genomic particles and analyzed for gene expression 72 h later. In addition a column assay was carried out. AAVwt or AAVsig were loaded onto heparin columns (immobilized on cross-linked 4% beaded agarose; Sigma) that had been prepacked and equilibrated according to the manufacturer's recommendations. Purified viral preparations (6.4×10^11 particles) in 200 μl were loaded, and the flow-through, wash, and 1 M NaCl eluates were collected and analyzed by dot-blot hybridization using twofold serial dilutions. For quantification of wtAAVegfp-mediated gene transfer to vascular EC, aliquots of cell extracts were analyzed in triplicate for eGFP expression using a Wallac Victor2 multi-counter with recombinant eGFP (Clontech, Basingstoke, Hants., UK) as a standard. All data were analyzed as eGFP relative light units (RFU)/mg protein. For analysis of AAVsig and AAVwtdriven lacZ expression, aliquots of cell extracts were analyzed for beta-galactosidase expression using Galacto-Light Plus (Tropix, Mass., U.S.A.) as per manufacturer's recommendations using recombinant beta-galactosidase (Sigma, UK) as a standard. All data were expressed as RLU/mg protein.

VSMC = assay: Binding of homogenous candidate phage to cells; design: species or system human
Experimental: (§1) 10^7 pfu of homogenous phage populations containing candidate peptides were panned on human endothelial cells (HEC), vascular smooth muscle cells (VSMC) and HepG2 hepatocytes, binding from a control peptide-less phage, subtracted and recovery calculated and expressed as a percentage of HEC;
(§2) Phage libraries were amplified, purified and titered according to manufacturers protocols. HEC were plated into 6 well plates and cultured until 2 days post-confluence. 1×10^9 pfu of input phage library was used to pan confluent cultures of HEC (passage 2-4) in triplicate. First we used a direct screening approach and biopanned HEC for 4 rounds. Second we biopanned on HEC after biopanning for 1 hour on 2 successive cultures of VSMC, HepG2 and peripheral blood mononuclear cells (pre-clearing steps). Prior to biopanning growth media was changed to 1 ml DMEM containing 1% bovine serum albumin (BSA) and the plates were incubated at 4° C. for 15 minutes. For HEC, 1×10^9 pfu of pre-cleared or stock phage library was incubated with cells for 1 hour at 4° C. Cells were washed 5 times in ice-cold PBS/1% BSA for 5 minutes per wash. Weakly associated phage were eluted in 1 ml 0.2 M glycine (pH 2.2) for 10 minutes on ice, followed by neutralisation with 200 μl Tris-HCl (pH 8.0). High affinity phage (tightly-bound phage) were isolated by lysing the cells in 1 ml of 30 mM Tris-HCL/1 mM EDTA (pH 8.0) for 1 hour on ice. Cell debris was removed and the supernatant recovered. Phage were amplified and titered between each round to ensure that 10^9 pfu of input phage were used at the start of each successive round. Following completion of biopanning, E. coli ER2537 were infected with the resulting phage, plated and individual plaques picked, amplified, and sequenced. For further binding studies, high titer homogenous populations of each phage were prepared. Briefly, 1×10^7 pfu of each phage were biopanned on HEC, VSMC and HepG2 cells for 30 minutes at 4° C. […] The percentage recovery was calculated for each cell type using a peptide-less phage to allow for background binding.

HepG2 hepatocytes = assay: Binding of homogenous candidate phage to cells; design: species or system human
Experimental: as §1, §2

HEC [1] = assay: Binding of homogenous candidate phage to cells; design: species or system human; conditions: 10^7 pfu
Experimental: as §1, §2

HEC [2] = conditions: peptide fused to an antibody against the Ad5 fiber knob; reference [47]; cited from earlier work

## C[C@@]1(CO)[C@H](O)CC[C@@]2(C)[C@H]1CC[C@H]1C[C@@H]3C[C@@]12CC[C@]3(O)CO [aphidicolin]
HUVEC
  effect of agent on wtAAVegfp reporter gene expression versus infection without treatment: enhanced

## SIGYPLP
VSMC
  binding to VSMC compared to HEC: limited binding; also recorded: low-level affinity
HepG2 hepatocytes
  binding to HepG2 hepatocytes compared to HEC: limited binding; also recorded: low-level affinity
HEC [1]
  binding to HEC: high-level binding
HEC [2]
  adenoviral gene transfer into human EC versus non-targeted Ad: 15 fold

## CC(C)C[C@@H](C=O)NC(=O)[C@H](CC(C)C)NC(=O)[C@H](CC(C)C)NC(=O)OCc1ccccc1 [mg132] (Cbz-Leu-Leu-Leu-aldehyde)
HUVEC
  effect of agent on wtAAVegfp reporter gene expression versus infection without treatment: increase

## CCCC[C@@H](C=O)NC(=O)[C@H](CC(C)C)NC(=O)[C@H](CC(C)C)NC(C)=O [LLnL] (Ac-Leu-Leu-[Nle]-aldehyde)
HUVEC
  effect of agent on wtAAVegfp reporter gene expression versus infection without treatment: increase

## COc1cc([C@@H]2c3cc4c(cc3[C@@H](O[C@@H]3O[C@@H]5CO[C@@H](C)O[C@H]5[C@H](O)[C@H]3O)[C@H]3COC(=O)[C@H]23)OCO4)cc(OC)c1O [etoposide]
HUVEC
  effect of agent on wtAAVegfp reporter gene expression versus infection without treatment: enhanced
